The text below walks through data of patent US10993957B2 (NuCana plc, priority 2011, dated 2021).

For assay [1], the system named is Cem/TK^−. Description: Cytostatic assay, thymidine kinase-deficient CEM/TK^− cells. The format is cell-based, human. The following applies: for CC50: read-out: CC50 Cem/TK^−; for IC50: read-out: IC50 Cem/TK^−.
Assay [2] deals with Cem/0. Description: Cytostatic assay, CEM/0 cells. It is filed as cell-based, human. The following applies: for CC50: read-out: CC50 Cem/0; for IC50: read-out: IC50 Cem/0. From the text:
(§1) The cell lines employed were L1210/0 (a leukemia cell line), FM3A/0 (a breast cancer cell line), Cem/0 (an acute lymphoblastic leukemia cell line) and HeLa (a cervical cell line).

Assay [3] relates to L1210/0. Description: Cytostatic assay, L1210/0 cells. It is filed as cell-based, murine.
Description: as §1

In assay [4] the test system is L1210.Hyor. Description: Cytostatic assay, Mycoplasma hyorhinis-infected L1210 cells. The note with it: for % Retention: CC50 L1210 × 100 ÷ CC50 L1210/Hyor; for CC50: L1210, read-out: CC50 L1210/Hyor. The source says: Murine leukaemia L1210/0 and human T-lymphocyte CEM/0 cells were obtained from the American Type Culture Collection (ATCC) (Rockville, Md.). Human glioblastoma U87 cells were kindly provided by Dr. E. Menue (Institut Pasteur, Paris, France). […] S. Eriksson (currently at Uppsala University, Uppsala, Sweden) and Prof A. Karlsson (Karolinska Institute, Stockholm, Sweden). […] All cells were maintained in Dulbecco's modified Eagle's medium (DMEM) (Invitrogen, Carlsbad, Calif.) with 10% foetal bovine serum (FBS) (Biochrom AG, Berlin, Germany), 10 mM Hepes and 1 mM Sodium Pyruvate (Invitrogen). Cells were grown at 37° C. in a humidified incubator with a gas phase of 5% CO2.
Monolayer cells (U87 and U87.Hyor) were seeded in 48-well microtiter plates (Nunc™, Roskilde, Denmark) at 10,000 cells/well. After 24 hours, an equal volume of fresh medium containing the test compounds was added. On day 5, cells were trypsinized and counted in a Coulter counter (Analis, Suarlée, Belgium). Suspension cells (L1210/0, L1210/TK^−, L1210.Hyor, CEM/0, CEM/TK^−) were seeded in 96-well microtiter plates (Nunc™) at 60,000 cells/well in the presence of a given amount of the test compounds. The cells were allowed to proliferate for 48 h (L1210) or 72 hours (CEM) and were then counted in a Coulter counter.
Samples were also assayed for their % retention of activity in mycoplasma infected cells.
The L1210/0 cell cultures were infected with the mycoplasma species M. hyorhinis (cells designated: L1210.Hyor).

Assay [5] relates to L1210/TK^−. Description: Cytostatic assay, thymidine kinase-deficient L1210/TK^− cells. It is filed as cell-based, murine.
For assay [6], the system named is HeLa/TK^−. Description: Cytostatic assay, HeLa/TK^− cells. It is filed as cell-based. The note with it: for CC50: read-out: CC50 HeLa/TK^−; for IC50: read-out: IC50 HeLa/TK^−.
Description: as §1

The test system of assay [7] is HeLa. Description: Cytostatic assay, HeLa cells. The format is cell-based. The following applies: for CC50: read-out: CC50 HeLa; for IC50: read-out: IC50 HeLa.
Description: as §1

Where [8] appears, read: Homo sapiens, CEM-TK(-), Table 1.
[9] abbreviates: Homo sapiens, CEM-TK(-), Table 6.
Where [10] appears, read: Homo sapiens, CCRF-CEM, Table 1.
[11] abbreviates: Homo sapiens, CCRF-CEM, Table 6.
[12] abbreviates: Mus musculus, L1210/0, Table 1, read-out: CC50 L1210/0.
Where [13] appears, read: Mus musculus, L1210/0, Table 2, mycoplasma negative cells, read-out: CC50 L1210.
Setting [14] is: Mus musculus, L1210/0, Table 6, read-out: IC50 L1210/0.
[15] abbreviates: Mus musculus, L1210/0, Table 7, read-out: IC50 L1210/0.
Setting [16] is: Mus musculus, L1210, read-out: IC50 L1210.Hyor.
Setting [17] is: Mus musculus, L1210, Table 1, read-out: CC50 L1210/TK^−.
Setting [18] is: Mus musculus, L1210, Table 6, read-out: IC50 L1210/TK^−.
[19] abbreviates: Table 6, read-out: IC50 L1210/0.
The mark [20] stands for this setting: Table 7, read-out: IC50 L1210/0.
[21] abbreviates: read-out: IC50 L1210.Hyor, Table 7.
Where [22] appears, read: Table 6, read-out: IC50 L1210/TK^−.

Like-named read-outs stand apart in the source and are kept apart here.

In the case of `C[C@H](NP(=O)(OC[C@H]1O[C@@H](n2cc(F)c(=O)[nH]c2=O)CC1O)Oc1cccc2ccccc12)C(=O)OC1CCC1` (stereo partly drawn) [CPF 578, 5-Fluoro-2′-deoxyuridine-5′-O-[1-naphthyl-(cyclobutoxy-L-alaninyl)]phosphate], the CC50 worked out at 1500 ± 300 nM in assay [1] (setting [8]); 73 ± 18 nM in assay [2] (setting [10]); 14 ± 3 nM in assay [3] (setting [12]); 15 nM in assay [3] (setting [13]); 48 nM in assay [4] (Mus musculus); 88 ± 38 nM in assay [5] (setting [17]). In addition, the CC50 in assay [6] (Homo sapiens, HeLa, Table 1) was determined as 1500 ± 600 nM; in assay [7] (Homo sapiens, HeLa, Table 1), 69 ± 3 nM. The IC50 in assay [1] (setting [9]) was found to be 1500 ± 300 nM; in assay [2] (setting [11]), 73 ± 18 nM; in assay [3] (setting [14]), 14 ± 3 nM; in assay [3] (setting [15]), 11 ± 1.4 nM; in assay [4] (setting [16]), 24 ± 0.14 nM; in assay [5] (setting [18]) it was 88 ± 38 nM. Further, the IC50 is 1500 ± 600 nM in assay [6] (Homo sapiens, HeLa, Table 6) and 69 ± 3 nM in assay [7] (Homo sapiens, HeLa, Table 6). Moreover, in assay [4], the “% Retention” value is 31%. For the same compound, in assay [4] (Table 7), the “IC50(L1210.Hyor)/IC50(L1210/0)” value is on record as 2.2.

Regarding `O=C(OCc1ccccc1)C1CCCN1P(=O)(OC[C@H]1O[C@@H](n2cc(F)c(=O)[nH]c2=O)CC1O)Oc1cccc2ccccc12` (stereo partly drawn) [CPF 577, 5-Fluoro-2′-deoxyuridine-5′-O-[1-naphthyl(benzoxy-L-prolinyl)] phosphate], the CC50 is 32000 ± 9000 nM in assay [1] (Homo sapiens, CEM-TK(-)); 890 ± 350 nM in assay [2] (Homo sapiens, CCRF-CEM); 230 nM in assay [3] (Mus musculus, L1210/0, read-out: CC50 L1210); 210 ± 80 nM in assay [3] (Mus musculus, L1210/0, read-out: CC50 L1210/0); 630 nM in assay [4] (Mus musculus); 25000 ± 8000 nM in assay [5] (Mus musculus, L1210, read-out: CC50 L1210/TK^−). Moreover, the CC50 stood at 26000 ± 1000 nM in assay [6] (Homo sapiens, HeLa) and 1200 nM in assay [7] (Homo sapiens, HeLa). Moreover, the IC50 was determined as 35000 ± 9000 nM in assay [1] (Homo sapiens, CEM-TK(-)); 890 ± 350 nM in assay [2] (Homo sapiens, CCRF-CEM); 210 ± 80 nM in assay [3] (Mus musculus, L1210/0, read-out: IC50 L1210/0, Table 6); 260 ± 55 nM in assay [3] (Mus musculus, L1210/0, read-out: IC50 L1210/0, Table 7); 650 ± 70 nM in assay [4] (setting [16]); 25000 ± 8000 nM in assay [5] (Mus musculus, L1210, read-out: IC50 L1210/TK^−). Besides, the IC50 in assay [6] (Homo sapiens, HeLa) was 26000 ± 1000 nM; in assay [7] (Homo sapiens, HeLa), 1200 nM. In addition, the “% Retention” value in assay [4] was 36%. Moreover, the “IC50(L1210.Hyor)/IC50(L1210/0)” value in assay [4] (Table 7) came out at 2.5.

For the compound `CCCCCOC(=O)C(CCSC)NP(=O)(OCC1OC(n2cc(F)c(=O)[nH]c2=O)CC1O)Oc1ccccc1` (stereo not drawn) [Ph Pnt Met], the IC50 in assay [1] (Table 6) stood at 13000 ± 1000 nM; in assay [2] (Table 6) it was 350 ± 130 nM; in assay [3] (setting [19]) it was 110 ± 60 nM; in assay [3] (setting [20]) it was 130 ± 7.8 nM; in assay [4] (setting [21]), 410 ± 210 nM; in assay [5] (setting [22]), 2200 ± 500 nM. In addition, the IC50 in assay [6] (Table 6) was determined as 7100 ± 1200 nM; in assay [7] (Table 6), 150 nM. For the same compound, the “IC50(L1210.Hyor)/IC50(L1210/0)” value in assay [4] (Table 7) is 3.2.

On to `CSCC[C@H](NP(=O)(OC[C@H]1O[C@@H](n2cc(F)c(=O)[nH]c2=O)CC1O)Oc1ccccc1)C(=O)OCc1ccccc1` (stereo partly drawn) [CPF 586, 5-Fluoro-2′-deoxyuridine-5′-O-[phenyl-(benzoxy-L-methioninyl)] phosphate], for which the CC50 amounted to 25000 nM in assay [1] (setting [8]); 280 ± 30 nM in assay [2] (setting [10]); 73 ± 35 nM in assay [3] (setting [12]); 100 nM in assay [3] (setting [13]); 870 nM in assay [4] (Mus musculus); 4100 ± 1200 nM in assay [5] (setting [17]). Further, the CC50 in assay [6] (Homo sapiens, HeLa, Table 1) was determined as 11000 ± 7000 nM; in assay [7] (Homo sapiens, HeLa, Table 1), 150 ± 20 nM. Also, the IC50 stood at 25000 nM in assay [1] (setting [9]); 280 ± 30 nM in assay [2] (setting [11]); 73 ± 35 nM in assay [3] (setting [14]); 58 ± 35 nM in assay [3] (setting [15]); 760 ± 180 nM in assay [4] (setting [16]); 4100 ± 1200 nM in assay [5] (setting [18]). The IC50 in assay [6] (Homo sapiens, HeLa, Table 6) is 11000 ± 7000 nM; in assay [7] (Homo sapiens, HeLa, Table 6) it was 150 ± 20 nM. Further, the “% Retention” value in assay [4] amounted to 11%. Further, the “IC50(L1210.Hyor)/IC50(L1210/0)” value in assay [4] (Table 7) amounted to 13.

As for `O=C(OCc1ccccc1)C(Cc1ccccc1)NP(=O)(OCC1OC(n2cc(F)c(=O)[nH]c2=O)CC1O)Oc1ccccc1` (stereo not drawn) [Ph Bn Phe], the IC50 in assay [1] (Table 6) worked out at 11000 ± 3000 nM; in assay [2] (Table 6), 250 ± 20 nM; in assay [3] (setting [19]) it was 36 ± 10 nM; in assay [3] (setting [20]), 16 ± 1.4 nM; in assay [4] (setting [21]), 560 ± 23 nM; in assay [5] (setting [22]), 39000 ± 4000 nM. Besides, the IC50 in assay [6] (Table 6) is 12000 ± 2000 nM; in assay [7] (Table 6), 14 ± 7 nM. Moreover, the “IC50(L1210.Hyor)/IC50(L1210/0)” value in assay [4] (Table 7) was determined as 35.
